Read-outs that look alike come from different tables or passages of the source.
Assays:
human MAGL = molecular target: T1, human MAGL (Homo sapiens, UniProt Q99685); assay: MAGL activity assay (AA-HNA fluorogenic substrate); assay type: biochemical
T1 construct: expressed in transfected cells; host or cells: HEK293T (transient transfection; membrane fraction)
T1 sequence (Q99685 1-303): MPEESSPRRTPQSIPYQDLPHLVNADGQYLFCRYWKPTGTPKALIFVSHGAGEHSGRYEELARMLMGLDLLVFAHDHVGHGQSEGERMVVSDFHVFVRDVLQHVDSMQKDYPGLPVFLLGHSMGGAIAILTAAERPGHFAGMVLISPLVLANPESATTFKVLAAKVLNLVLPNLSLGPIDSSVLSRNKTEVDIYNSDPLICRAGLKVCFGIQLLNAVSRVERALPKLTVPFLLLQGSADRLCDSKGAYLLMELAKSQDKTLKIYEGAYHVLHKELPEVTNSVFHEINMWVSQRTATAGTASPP
Outline: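 Membranes from transiently transfected HEK293T cells overexpressing MAGL were preincubated with inhibitor for 30 min in 40 mM HEPES pH 7.5 with 0.1 mg/ml BSA. AA-HNA substrate was then added (10 µl of 200 µM stock), and fluorescence was read every minute for 30 min. Activity was taken from the slope between 5 and 15 min.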

human ABHD6 = molecular target: T2, human ABHD6 (Homo sapiens, UniProt Q9BV23); assay: ABHD6 activity assay (AA-HNA fluorogenic substrate); assay type: biochemical
T2 construct: expressed in transfected cells; host or cells: HEK293T (transient transfection; membrane fraction)
T2 sequence (Q9BV23 1-337): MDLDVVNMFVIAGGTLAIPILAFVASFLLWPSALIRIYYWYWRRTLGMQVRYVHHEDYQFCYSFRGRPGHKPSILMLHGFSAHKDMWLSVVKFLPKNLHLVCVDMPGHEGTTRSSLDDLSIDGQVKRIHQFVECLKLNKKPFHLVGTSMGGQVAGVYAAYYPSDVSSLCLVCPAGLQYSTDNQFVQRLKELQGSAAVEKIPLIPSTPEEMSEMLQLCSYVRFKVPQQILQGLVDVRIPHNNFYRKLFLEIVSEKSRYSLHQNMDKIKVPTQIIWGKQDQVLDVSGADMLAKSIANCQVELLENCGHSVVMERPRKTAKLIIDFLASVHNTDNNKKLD
Outline: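 Membranes from HEK293T cells transiently overexpressing human ABHD6 (50 μg/ml final) were preincubated 30 min with inhibitor in 40 mM HEPES pH 7.5, 0.1 mg/ml BSA, 5% DMSO. Hydrolysis of 200 µM AA-HNA was followed by fluorescence for 30 min, activity taken as the 5–15 min slope.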

[1] = 100 µM, AA-HNA substrate assay, Supplementary Table 1, read-out: MAGL Inhibition (%)
[2] = 100 µM, AA-HNA substrate assay, Supplementary Table 2, read-out: ABHD6 Inhibition (%)

| SMILES | inhibition at 100 µM (human MAGL; 100 µM, AA-HNA assay) | activity at 100 µM (human MAGL; [1]) | activity at 100 µM (human ABHD6; [2]) | other results |
| --- | --- | --- | --- | --- |
| C[C@H]1COC2=C1C(=O)C(=O)c1c2ccc2c1CCCC2(C)C [compound 23, Cryptotanshinone] | > 80% | 11.2% | 62.5% | IC50 (human MAGL; printed in Figure 3B-D, read-out: IC50 (MAGL, AA-HNA assay)): 11 µM; IC50 (human MAGL; recombinant human MAGL, AA-HNA assay, average ± SEM, n = 4, read-out: MAGL inhibition (pIC50) (converted)): 12.6 µM; inhibition at 100 µM (human ABHD6; recombinant human ABHD6, 100 µM compound): < 50%; ABHD6 inhibition (%) (human ABHD6; recombinant human ABHD6, 100 µM compound, 100 µM): 37% |
| COc1ccc2cc3[n+](cc2c1OC)CCc1cc2c(cc1-3)OCO2 [compound 17, Berberine chloride] | – | 82.8% | 112% | – |
| Cl.N=c1ccn2c(n1)O[C@H]1[C@H](O)[C@@H](CO)O[C@H]12 [compound 1, Cyclocytidine HCl] | – | – | – | activity (human MAGL; [1]): 31.7%; activity (human ABHD6; [2]): 89.8% |
| COc1ccc(C(C)=O)c(O)c1 [compound 64, Paeonol] | – | 102% | 96.2% | – |
| O=c1cc(-c2ccc(O)cc2)oc2cc(O)cc(O)c12 [compound 9, Apigenin] | > 80% | – | 88.9% | – |

Reference: PMC9465256, “Discovering monoacylglycerol lipase inhibitors by a combination of fluorogenic substrate assay and activity-based protein profiling” (Frontiers in Pharmacology, 2022)
